The values that follow come from patent US6664277B1, “Prenylation inhibitors containing dimethylcyclobutane and methods of their synthesis and use” (PPD Discovery, Inc., priority 2002, dated 2003).

The target in this assay is T1, GGPTase I (Rattus norvegicus, UniProt P53610+Q04631).
T1 construct: made in house; host or cells: Sf9 insect cells (baculovirus co-infection)
In words: GGPTase I inhibition assay ([3H]GGPP transfer to Ras-CVLL). In kind it is biochemical. To be noted: test compound 100 nM, mixtures of regioisomers and/or enantiomers unless indicated. On the procedure:
GGPTase-I activity was determined by the method of Casey et al, Proc. Natl. Acad. Sci. USA, 1991, 88, 8631-8635. This method measures the transfer of isoprenoid from ^3H-geranylgeranyl diphosphate (GGPP) into a Ras protein with a C-terminal leucine-for-serine substitution (designated as Ras-CVLL).
Assays for the inhibition studies of GGPTase I were performed in a manner analogous to that described by Casey, et al., Proc. Natl. Acad. Sci. USA, 1991, 88, 8631-8635, with the following modifications. For those assays, the reaction mixtures contained the following components in 50 μl:0.25 μM [^3H]GGPP (sp. act. 8-10 Ci/mmol), 2.5 μM Ras-CVLL, 50 mM Tris-Cl, pH 7.7, 20 mM KCl, 5 mM MgCl2, 5 μM ZnCl2, 1 mM DTT, 0.5 mM Zwittergent 3-14 and the desired amount of the compound to be tested for inhibitory potential. After pre-equilibrating the assay mixture at 30° C. in the absence of the enzyme, the reaction was initiated by addition of the enzyme (75 ng). Following an about 10 minute incubation at about 30° C., the reactions were terminated by addition of about 0.5 ml of about 4% SDS. About 40 mg of bovine brain membranes was added to the samples to enhance recovery during precipitation. Product was precipitated by addition of about 0.5 ml of 30% TCA, allowed to stand at room temperature for about 15 minutes, and processed by filtration through glass-fiber filters as described previously (Reiss et al., Methods: Companion to Methods in Enzymology, 1991, 1, 241-245). Reactions were never allowed to proceed to more than 10% completion based on the limiting substrate. Assays for the inhibition studies of FPTase were performed analogous the GGPTase I inhibition studies, except [^3H]GGPP was replaced with 0.25 μM of [^3H]FPP (sp. act. 8-10 ci/mmol) and Ras-CVLL was replaced with 1 μM H-Ras.
Using the method described above, the GGPTase I inhibitory activities of some of the compounds of the present invention were evaluated. The concentration of the test compound used was 100 nM. Mixtures of regioisomers and/or enantiomers are used unless indicated otherwise (for example, the position of substituents on the dimethyl cyclobutane moiety).

T1 sequence (P53610 whole entry, one chain of several): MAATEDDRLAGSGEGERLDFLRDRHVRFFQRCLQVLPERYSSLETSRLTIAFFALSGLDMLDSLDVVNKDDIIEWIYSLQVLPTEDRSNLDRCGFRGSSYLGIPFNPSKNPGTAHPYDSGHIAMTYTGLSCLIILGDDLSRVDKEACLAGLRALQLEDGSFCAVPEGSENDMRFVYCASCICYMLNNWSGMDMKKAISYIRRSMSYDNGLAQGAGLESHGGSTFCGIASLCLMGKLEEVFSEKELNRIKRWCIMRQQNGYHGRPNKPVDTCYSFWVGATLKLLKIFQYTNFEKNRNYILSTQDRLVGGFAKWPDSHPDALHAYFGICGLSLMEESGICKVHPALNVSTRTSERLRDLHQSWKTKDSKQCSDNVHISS

As to `CN1Cc2ccccc2C[C@H]1C(N)=O`, where the note is “Table I”, the Inhibition entry is on record as “Yes”. For the molecule `CC1(C)[C@@H](CC(=O)NC(CO)Cc2ccccc2)C[C@@H]1c1cc(-c2cccnc2)nn1-c1ccc(Cl)c(Cl)c1` (stereo partly shown) [CH2OH], the Inhibition result reads like this: (Table II) “yes”; (Table V) “yes”.

Consider `CC1(C)[C@@H](CC(=O)NCCc2ccccc2)C[C@@H]1c1cc(-c2cccnc2)nn1-c1ccc(Cl)c(Cl)c1` [H], for which the Inhibition result is “yes” (Table II) and “yes” (Table V). Turning to `CN(C(=O)C[C@H]1C[C@H](c2cc(-c3cccnc3)nn2-c2ccc(Cl)c(Cl)c2)C1(C)C)C(Cc1ccccc1)C(N)=O` (stereo partly shown), the Inhibition entry (Table VI) is “yes”. Turning to `CC1(C)[C@@H](CC(=O)NC(Cc2ccccc2)C(N)=O)C[C@@H]1c1cc(-c2cccnc2)nn1-c1ccc(Cl)c(Cl)c1` (stereo partly shown) [Bn], where the note is “Table V”, the Inhibition entry was “yes”.

`COC(=O)C(Cc1ccccc1)NC(=O)C[C@H]1C[C@H](c2cc(-c3cccnc3)nn2-c2ccc(Cl)c(Cl)c2)C1(C)C` (stereo partly shown) [CO2Me]: the Inhibition entry (Table II) is “yes”. The same measure, in the same setting: then `CC1(C)[C@@H](CC(=O)NC(Cc2ccccc2)C(N)=O)C[C@@H]1c1cc(-c2cccnc2)nn1-c1ccc(Cl)c(Cl)c1` (stereo partly shown) [CONH2], with “yes”. Turning to `CC1(C)[C@@H](CC(=O)NC(C(N)=O)c2ccccc2)C[C@@H]1c1cc(-c2cccnc2)nn1-c1ccc(Cl)c(Cl)c1` (stereo partly shown) [Ph], the Inhibition entry (Table V) was “yes”.

Consider `CC1(C)[C@@H](CNC(=O)[C@@H](N)Cc2ccccc2)C[C@H]1c1cc(-c2cccnc2)nn1-c1ccc(Cl)c(Cl)c1`, for which the Inhibition entry (Table VI) is listed as “yes”. Turning to `CC1(C)[C@@H](CCNC(Cc2ccccc2)C(N)=O)C[C@H]1c1cc(-c2cccnc2)nn1-c1ccc(Cl)c(Cl)c1` (stereo partly shown), the Inhibition entry (Table VI) is on record as “no”. `CN1CC[C@H](c2ccccc2)[C@H]1C(N)=O`: the Inhibition entry (Table I) is listed as “Yes”. As for `CC1(C)[C@@H](CC(=O)NC(Cc2ccccc2)C(=O)O)C[C@@H]1c1cc(-c2cccnc2)nn1-c1ccc(Cl)c(Cl)c1` (stereo partly shown) [CO2H], the Inhibition result (Table II) is recorded as “yes”. Same read-out and setting: then `CC1(C)[C@@H](CC(=O)NC(Cc2ccccc2)C(=O)OCc2ccccc2)C[C@@H]1c1cc(-c2cccnc2)nn1-c1ccc(Cl)c(Cl)c1` (stereo partly shown) [CO2Bn], with “yes”; and `CNC(=O)C(Cc1ccccc1)NC(=O)C[C@H]1C[C@H](c2cc(-c3cccnc3)nn2-c2ccc(Cl)c(Cl)c2)C1(C)C` (stereo partly shown) [CONHMe], with “yes”.
